Results: PubChem BioAssay AID1902 (Broad Institute, 2009)
Calls of active or inactive are those of the source.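 How the source made its calls: active means EC50 no more than a set limit of log units above the highest dose; inactive means the rest.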

molecular target: S. pyogenes SKKanGAS, kanamycin survival, BacTiterGlo, 6 h; assay: SKKanGAS survival reduction under kanamycin, dose response, streptokinase promoter inhibitor project, SKKanGAS strain, luminescence, dose confirmation (AID 1902);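 further: lower survival reflects blocked streptokinase promoter driving kanamycin resistance gene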

Structure (SMILES)	EC50
COCC1CCN(C(=O)c2ccc3oc(Cc4ccccc4)nc3c2)C1 (stereo unspecified)	> 15 µM (inactive)
C/C(CC(=O)Nc1ccc(Cl)c(C(F)(F)F)c1)=N\NC(=O)c1cc2ccccc2cc1O	1.58 µM
Cn1nnnc1SCC(=O)Nc1nc(-c2ccccc2)c(-c2ccccc2)o1	7.27 µM
CC1(C)Cc2c(cnn2-c2ccccc2)-c2c1c1ccccc1n2CC(O)CCl (stereo unspecified)	5.24 µM
Cc1nnc(Sc2cc(NCCCO)c([N+](=O)[O-])c3nonc23)s1	7.78 µM
CCOC(=O)c1ccc(Nc2nc(C)nc3c2nnn3Cc2ccccc2)cc1	6.69 µM
C#CCOCCOCCOCCNc1nc(N2CCN(C(=O)CCCCCCCCCCNC(=O)[C@H](CCCCN)n3cc(C[C@@H](C)CC)nn3)CC2)nc(N2CCN(C(=O)CCCCCCCCCCNC(=O)[C@H](CCCCN)n3cc(C[C@@H](C)CC)nn3)CC2)n1	5.16 µM
CN1CCN(c2c(F)cc3c(=O)c(C(=O)O)cn4c3c2OCN4C)CC1	3.29 µM
CC(C)c1ccc(-c2cc(C(=O)N3N=C(C(F)F)CC3(O)C(F)F)c3ccccc3n2)cc1 (stereo unspecified)	3.11 µM
O=C(NNC(=S)NC(=O)c1ccccc1)c1ccc([N+](=O)[O-])cc1	3.23 µM
CCCNC(=O)c1ccc(N2CCC3(CC2)CC(c2ccccc2)=NO3)c(NC(=O)c2ccco2)c1	8 µM
CCSc1cc(N2CCCC2)nc(-c2ccccc2)n1	> 15 µM (inactive)
O=C(NCc1nc(-c2ccc(C(F)(F)F)cc2)no1)Nc1cc(Cl)cc(Cl)c1	2.31 µM
CC(C)C[C@H](NC(=O)c1[nH]cnc1C(=O)N[C@H](C)c1ccccc1)C(=O)OC(C)(C)C	6.02 µM
CCn1c(=O)c(C(=O)NNC(=O)c2ccccc2F)c(O)c2ccccc21	3.17 µM
Cc1noc(C)c1S(=O)(=O)N(CCc1ccccc1)Cc1ccccc1	5.83 µM
CN1C(=O)/C(=C/c2cccn2-c2ccc3ccccc3c2)C(=O)NC1=S	5.74 µM
O=C(/C(=N\Nc1ccc([N+](=O)[O-])cc1)Sc1nnnn1-c1ccccc1)c1ccccc1	5.46 µM
CCOC(=O)c1cccc(N2C(N)=NC(N)=NC2(C)C)c1	0.109 µM
COc1ccc(S(=O)(=O)N2CCOC2CNC(=O)C(=O)NCc2ccccc2Cl)cc1 (stereo unspecified)	> 15 µM (inactive)
CC(C)NC(=S)NC(c1ccccc1)(c1ccccc1)c1ccccc1	4.87 µM

Structure (SMILES)	EC50
O=c1cc(-c2ccc([N+](=O)[O-])cc2)nc2cc(-c3ccc(F)cc3)[nH]n12	3.48 µM
O=C(Cc1cccs1)Nc1cccc(-c2nc3cc4ccccc4cc3[nH]2)c1	4.25 µM
O=C(Nc1nnc(-c2ccccc2)o1)c1ccc(Cl)cc1	0.254 µM
Cc1cc(NCc2ccccn2)n2nc(C)c(-c3ccc(Cl)cc3)c2n1	4.36 µM
COc1ccc(OC)c(NC(=O)NCc2cccnc2)c1	> 15 µM (inactive)
O=C(N/N=C(\c1ccccc1)c1cccnc1)c1cccc(F)c1	3.49 µM
Oc1c(C(Nc2ccccn2)c2cccnc2)cc(Cl)c2cccnc12 (stereo unspecified)	2.46 µM
Cc1ccc(NS(=O)(=O)c2ccc(Cl)c(NC(=S)NC(=O)C3CCCCC3)c2)cc1Cl	1.13 µM
CC(=O)Oc1c(-c2ccc(Br)o2)oc2ccccc2c1=O	3.34 µM
C[C@H](CCC(=O)NCC(=O)O)[C@H]1CC[C@H]2C3[C@H](O)C[C@@H]4C[C@H](O)CC[C@]4(C)[C@H]3C[C@H](O)[C@]12C (stereo partly specified)	> 15 µM (inactive)
O=C(CC(=O)c1cc(Cl)ccc1O)c1ccccc1	1.01 µM
CCOC(=O)/C(=N\Nc1ccc(OC)cc1)c1csc(Nc2ccccc2)n1	2.45 µM
CC(C)(C)N/N=C1\CC(c2ccccc2)Oc2ccccc21 (stereo unspecified)	3.03 µM
Cc1cc(Cl)c2oc(C(=O)N3CCC(O)(c4ccccc4)CC3)c(C)c2c1	7.31 µM
FC(F)(F)c1cccc(CNC2c3ccccc3-c3ccccc32)c1	6.57 µM
CC(Oc1ccc(Cl)cc1)C(=O)NNC(=S)NC(=O)c1ccco1 (stereo unspecified)	0.325 µM
OCCN(CCO)c1ccc(C(c2ccccc2Cl)c2ccc(N(CCO)CCO)cc2Cl)c(Cl)c1	5.06 µM
O=c1c2cc(Br)ccc2nc(-c2ccc(Cl)cc2)n1O	1.07 µM
O=C(Nc1ccccc1)Nc1cc(Cl)cc(Cl)c1	6.8 µM
Oc1ccc(COCc2ccccc2)c2cccnc12	1.85 µM
